According to patent publication US11191273B2, “Methods of making pyranopyrans such as pyranopyran nitrile and methods of using pyranopyrans such as pyranopyran nitrile” (The United States of America, as Represented by the …, priority 2018, dated 2021):
≈ marks a conversion by molar mass, not a printed value. Where “and” joins values, the source holds several entries; their conditions need not be identical. Equal entries are not always repeated. Where two headings read alike, the source gives them in different places.

Experiments:
[1] = test system: Flavobacterium columnare ALM-00-173; assay: rapid 96-well microplate antibacterial bioassay against F. columnare; format: cell-based; settings: F. columnare ALM-00-173; for MIC RDCF (relative-to-drug-control florfenicol): MIC divided by MIC of florfenicol; for IC50 / MIC: Flavobacterium columnare; for IC50: ALM00173, 24 h; for MIC: ALM00173, read-out: MIC (minimum inhibitory concentration); for MIC / MIC (minimum inhibitory concentration): 24 h
Excerpt: An isolate of F. columnare [isolate ALM-00-173 (genomovar II)] was obtained from Dr. Covadonga Arias (School of Fisheries, Aquaculture and Aquatic Sciences, Auburn University, Auburn, Ala.). In order to assure purity, cultures of F. columnare ALM-00-173 were maintained separately on modified Shieh (MS) agar plates (pH 7.2-7.4) (Decostere, A., et al., Laboratory Animals, 36: 396-402 (2003)). Prior to conducting the bioassay, colonies of F. columnare ALM-00-173 were used to prepare the assay culture material by culturing in 75 mL of MS broth for 24 h at 29±1° C. at 150 rpm on a rotary shaker (model C24KC; New Brunswick Scientific, Edison, N.J.). After overnight incubation, a 0.5 McFarland standard of F. columnare ALM-00-173 culture material was prepared by transferring cells from the broth culture to fresh MS broth (Schrader, K. K., and M. D. Harries, Aquaculture Research, 37: 928-937 (2006)).
(§1) The pure test compounds (−)-diplopyrone and (−)-diplopyrone acetate were dissolved in technical grade 100% methanol while (−)-diplopyrone nitrile was dissolved in technical grade 100% acetone. The three test compounds were evaluated for antibacterial activity against F. columnare ALM-00-173 and E. ictaluri S02-1039 using a rapid 96-well microplate bioassay and following previous procedures (Schrader and Harries 2006). Florfenicol was included as a positive drug control. Control wells (no test material added) were also included in each assay. Final test concentrations of compounds and florfenicol were 0.01, 0.1, 1.0, 10.0, 100.0, and 1000.0 μM. Three replications were used for each dilution of each test compound and drug control, and final results were converted to units of mg/L to allow comparison with previous studies.
(§2) The 24-h 50% inhibition concentration (IC50) and minimum inhibitory concentration (MIC) were determined using sterile 96-well (flat bottom) polystyrene microplates (Corning Costar Corp., Acton, Mass.) for (−)-diplopyrone and (−)-diplopyrone acetate. In order to prevent solvent interaction with polystyrene, sterile 96-well (flat bottom) quartz microplates (Hellma Cells, Inc., Forest Hills, N.Y.) were used for (−)-diplopyrone nitrile. Initially, dissolved test compounds or florfenicol were micropippeted separately into individual microplate wells (10 μL/well), and the solvent was allowed to completely evaporate before 0.5 MacFarland bacterial culture was added to the microplate wells (200 μL/well). Microplates were incubated at 29±1° C. (VWR model 2005 incubator; Sheldon Manufacturing, Inc., Cornelius, Oreg.). A microplate photometer (SpectraCount, Packard Instrument Company, Meriden, Conn.) was used to measure the absorbance (630 nm) of the microplate wells at time 0 and 24-h. Two replicates of each microplate bioassay were made. Cell viability of F. columnare ALM-00-173 and E. ictaluri S02-1039 was determined at the completion of the growth bioassay for each test compound using the yellow dye 3(4,5-dimethylthiazol-2-yl)-2,5-diphenyl tetrazolium bromide (MTT) and previously outlined procedures (Schrader and Harries 2006). In addition, the minimum bactericidal concentration (MBC) was determined for very active compounds (Schrader and Harries 2006).
(§3) The means and standard errors of absorbance measurements were calculated, graphed, and compared to controls to determine the MIC, 24-h IC50, and MTT 24-h IC50 for each test compound. The 24-h IC50 and MIC results for each test compound were divided by the respective 24-h IC50 and MIC results obtained for the positive control florfenicol to determine the relative-to-drug-control florfenicol (RDCF) values.

[2] = test system: Edwardsiella ictaluri S02-1039; assay: rapid 96-well microplate antibacterial bioassay against E. ictaluri; format: cell-based; settings: E. ictaluri S02-1039; for MIC RDCF (relative-to-drug-control florfenicol): MIC divided by MIC of florfenicol; for IC50: S021039, 24 h; for MIC / MIC (minimum inhibitory concentration): 24 h; for MIC: read-out: MIC (minimum inhibitory concentration)
Excerpt: An isolate of E. ictaluri (isolate S02-1039) was obtained from a person (formerly with the College of Veterinary Medicine, Mississippi State University, Stoneville, Miss.). In order to assure purity, cultures of E. ictaluri S02-1039 were maintained on 3.8% Mueller-Hinton (MH) agar plates (pH 7.3) (Becton, Dickinson and Company, Sparks, Md.). Prior to conducting the bioassay, colonies of E. ictaluri S02-1039 were used to prepare assay culture material by aseptically transferring bacterial cells from colonies to 45 mL of 3.8% MH broth to form a bacterial cell density of 0.5 McFarland standard.
as §1, §2, §3

[3] = test system: Lemna paucicostata (L.) Hegelm. (duckweed); settings: commercial herbicides; Michel et al. 2004; read-out: IC50 in the same duckweed bioassay; cited from earlier work
[4] = test system: Lemna paucicostata (L.) Hegelm. (duckweed); assay: duckweed phytotoxicity bioassay (growth by frond area); format: in vivo; settings: for visual symptoms: 7 days of exposure, FIG. 7
Procedure: Pyranopyran (2), pyranopyran acetate (3), and pyranopyran nitrile (4) were also evaluated for phytotoxic activity using the aquatic plant Lemna paucicostata (L.) Hegelm. (duckweed). Dose-response curves from the aquatic plant Lemna paucicostata (L.) Hegelm. (duckweed) were obtained from experiments conducted. Duckweed was grown and treated as described by Michel et al. (Michel, A., et al., Environ. Toxicol. Chem., 23: 1074-1079 (2004)) with slight modifications. Duckweed stocks were cultivated from single L. paucicostata colonies (an aggregate of one mother and two daughter fronds to assure genetic uniformity) in Hoagland's No. 2 basal salt mixture with added iron (1000× Fe-EDTA solution, pH 5.5) in sterile trays. The plants were grown in a growth chamber under the following controlled conditions: continuous light at 26° C. and 120 μmol·s^−1·m^−2 photosynthetically active radiation. Hoagland solution was changed every two days. Bioassays were conducted in sterile […] (Falcon, Corning Life Science). Each well contained 5 mL with 1% EtOH with or without test compounds. Test compounds were dissolved in EtOH. A graphic template of the six-well plates was used for LemnaTec (LemnaTec, Würselen, Germany) image analysis software. Treatment plates, with two three-frond plants of the approximately same size per well, were incubated during 7 days of treatment. Each treatment was replicated three times. IC50 values (concentration of test compound that inhibits growth 50%) were determined with R statistics software. Effects on growth are evaluated by measuring area of the plant fronds with image analysis.

[5] = absorbance 630 nm, SE in parentheses, read-out: 24-h IC50 (50% inhibition concentration)
[6] = tetrazolium bromide dye MTT, read-out: MTT 24-h IC50 (cell viability)
[7] = Edwardsiella ictaluri, absorbance 630 nm, SE in parentheses, read-out: 24-h IC50 (50% inhibition concentration)
[8] = Edwardsiella ictaluri, tetrazolium bromide dye MTT, read-out: MTT 24-h IC50 (cell viability)
[9] = Edwardsiella ictaluri, S021039, SE in parentheses
[10] = absorbance 630 nm, SE in parentheses

Structure (SMILES) | MIC RDCF (relative-to-drug-control florfenicol) [1] | IC50 [1, 5] [µg/mL] | MIC ([1]; SE in parentheses) [µg/mL] | MIC RDCF (relative-to-drug-control florfenicol) [2] | IC50 [2, 7] [µg/mL] | MIC [2, 9] [µg/mL] | MIC (minimum inhibitory concentration) ([1]; SE in parentheses) | 24-h IC50 (50% inhibition concentration) [1, 10] | MIC (minimum inhibitory concentration) ([2]; SE in parentheses) | 24-h IC50 (50% inhibition concentration) [2, 10] | further results
NC(=O)[C@@H]1C=C[C@H]2OC(=O)C=C[C@H]2O1 [Pyranopyran amide (29), (2S,4aR,8aR)-6-Oxo-2,4a,6,8a-tetrahydropyrano[3,2-b]pyran-2-carboxamide] | 297.9 (243.8) | 54.6 (≈ 280 µM) | 107 (≈ 550 µM) | 54.2 (0) | 20.5 (≈ 105 µM) | 19.5 (≈ 99.9 µM) |  |  |  |  | IC50 [1, 6]: 75.1 µg/mL (≈ 385 µM); melting point: 160 to 164 °C; IC50 [2, 8]: 16.6 µg/mL (≈ 85.1 µM)
CCc1cnc(C2=NC(C)(C(C)C)C(=O)N2)c(C(=O)O)c1 (stereo not shown) [imazethapyr] |  |  |  |  |  |  |  |  |  |  | IC50 [3]: 930 nM
C[C@@H](O)[C@@H]1C=C[C@H]2OC(=O)C=C[C@H]2O1 [Pyranopyran (2), (4aR,6S,8aR)-6-((R)-1-Hydroxyethyl)-6,8a-dihydropyrano[3,2-b]pyran-2-(4aH)-one] | 544.4 (0) |  |  | 54.4 (0) |  |  | 196.0 (0) mg/L | 76.4 (2.0) mg/L | 19.6±0 mg/L and 19.6 (0) mg/L | 46.1 ± 1.0 mg/L | MTT 24-h IC50 (cell viability) ([1]; tetrazolium bromide dye MTT): 78.4 (0) mg/L; MTT 24-h IC50 (cell viability) ([2]; tetrazolium bromide dye MTT): 22.1 (9.3) mg/L
CC(C)c1ccc(NC(=O)N(C)C)cc1 [isoproturon] |  |  |  |  |  |  |  |  |  |  | IC50 [3]: 350 nM
O=C1C=C[C@H]2O[C@H](CO)C=C[C@H]2O1 [Desmethylpyranopyran (28), (4aR,6S,8aR)-6-(Hydroxymethyl)-6,8a-dihydropyrano[3,2-b]pyran-2(4aH)-one] | 505.6 (0) | 76.4 (≈ 419 µM) | 182 (≈ 999 µM) | 50.6 (0) | 48.2 (≈ 265 µM) | 18.2 (≈ 99.9 µM) |  |  |  |  | IC50 [1, 6]: 79.2 µg/mL (≈ 435 µM); IC50 [2, 8]: 14.7 µg/mL (≈ 80.7 µM)
CC(=O)OC[C@@H]1C=C[C@H]2OC(=O)C=C[C@H]2O1 [Desmethylpyranopyran acetate (27), (2S,4aR,8aR)-6-Oxo-2,4a,6,8a-tetrahydropyrano[3,2-b]pyran-2-yl]methyl acetate] | 622.2 (0) |  |  | 62.2 (0) |  |  | 224.0 (0) mg/L | >224.0 mg/L | 22.4 (0) mg/L | 39.2 (1.1) mg/L | MTT 24-h IC50 (cell viability) ([1]; tetrazolium bromide dye MTT): >224.0 mg/L; MTT 24-h IC50 (cell viability) ([2]; tetrazolium bromide dye MTT): 35.8 (4.5) mg/L
N#C[C@@H]1C=C[C@H]2OC(=O)C=C[C@H]2O1 [Pyranopyran nitrile (4), (4aR,6S,8aR)-6-Cyano-6,8a-dihydropyrano-[3,2-b]pyran-2(4aH)-one] | 49.2 (0) | 7.5 ± 0.5 (≈ 42.3 µM) | 17.7 (≈ 99.9 µM) | 0.5 (0) | 7.7 ± 1.2 (≈ 43.5 µM) | 0.002 (≈ 0.0113 µM) | 17.7 (0) mg/L |  | 0.002 (0) mg/L |  | IC50 [1, 6]: 16.8 ± 0.9 µg/mL (≈ 94.8 µM); melting point: 162 to 164 °C; IC50 ([4]; Lemna aequinoctialis, 144 h, Lemna paucicostata growth, frond area, FIG. 6, 6 days of exposure, read-out: IC50 (concentration that inhibits growth 50%)): < 1000 nM; visual symptoms ([4]; at 33 μM and higher): some of the plants had no chlorophyll and were necrotic; visual symptoms ([4]; at 100 μM): many of the plants were devoid of chlorophyll and necrotic; MIC RDCF (relative-to-drug-control florfenicol) ([2]; listed as pyranopyran nitrile (4)): 0.5±0; IC50 [2, 8]: 64.6 µg/mL (≈ 365 µM); MBC ([2]; Edwardsiella ictaluri, S021039, bound is the highest test concentration, read-out: minimum bactericidal concentration (MBC)): > 177 µg/mL
CCC(CC)Nc1c([N+](=O)[O-])cc(C)c(C)c1[N+](=O)[O-] [pendimethalin] |  |  |  |  |  |  |  |  |  |  | IC50 [3]: 380 nM
C#C[C@@H]1C=C[C@H]2OC(=O)C=C[C@H]2O1 [compound 36, (4aR,6S,8aR)-6-Ethynyl-6,8a-dihydropyrano[3,2-b]pyran-2(4aH)-one] |  |  |  |  |  |  |  |  |  |  | melting point: 153 to 154 °C
CC(=O)O[C@H](C)[C@@H]1C=C[C@H]2OC(=O)C=C[C@H]2O1 [Pyranopyran acetate (3), (4aR,6S,8aR)-6-((R)-1-Acetoxyethyl)-6,8a-dihydropyrano[3,2-b]pyran-2-(4aH)-one] | 661.1 (0) |  |  | 661.1 (0) |  |  | 238 mg/L and 238.0 (0) mg/L | >238.0 mg/L | 238.0 (0) mg/L | 165.4 (1.2) mg/L | MTT 24-h IC50 (cell viability) ([1]; tetrazolium bromide dye MTT): >238.0 mg/L; MTT 24-h IC50 (cell viability) ([2]; tetrazolium bromide dye MTT): 90.4 (4.8) mg/L
CS(=O)(=O)c1ccc([C@@H](O)[C@@H](CF)NC(=O)C(Cl)Cl)cc1 [Florfenicol, reference compound] |  | 0.69 (≈ 1.93 µM) | 0.36 (≈ 1 µM) |  | 0.18 (≈ 0.502 µM) | 0.36 (≈ 1 µM) |  | 0.54 mg/L |  | 0.14 mg/L | 
